This is an account of results in US11260050B2, “Combination of cotinine plus antioxidant for treatment-resistant depression and correction of astrocytes functional deficit induced by depression and other neuropathological” (UNIVERSIDAD SAN SEBASTIAN, priority 2017, dated 2022).

Assay [1] concerns mice subjected to restraint stress. The experiment in a line: Novel object recognition after restraint stress (Example 1, Experiment 1). It counts as in vivo, C57BL/6 mice. Conditions: RS mice, 14 days of IN cotinine; p<0.05. As for the experimental part:
(§1) Mice were treated immediately after the 21 days of immobilization stress (6 h/day) until euthanasia. Mice (n=5-8/condition) received daily treatments with 1. PBS (phosphate buffer saline, pH 7.4) via intranasal (2×12 μl/nostril), 2. PBS via gavage (50 μl); 3. Cotinine dissolved in PBS via oral (gavage, (0.5 mg/kg; Cot 0.5); 4. Cotinine dissolved in PBS via intranasal (Cot IN, 10 mg/ml, 2×12 μl/nostril).
(§2) To induce chronic stress, the restraint stress paradigm was used as previously described. Mice are immobilized in 50 ml falcon plastic tubes that were attached to mouse cages. The immobilization proceeded during 6 h from 9:00 AM to 3:00 PM in absence of treatments. Tubes have holes in the opposite side of the tube to allow the animal breathing and urination. Mice were almost completely immobilized for 6 h/day for 21 days after which they were permitted freely to move, eat and drink.
After a habituation step in the OF arena, each mouse was individually placed in the apparatus containing two identical objects located equidistant to each other (familiarization phase) and left to explore the objects for 5 min. Then, mice were returned to their cages and permitted to rest for 30 min. […] The time exploring the two objects was recorded during 5 min. […]

The test system of assay [2] is restrained mice. The assay can be described thus: Open field test, oral co-treatment during restraint stress (Example 3). It counts as in vivo, C57BL/6J mice. The note with it: oral cotinine 5 mg/kg, KO 143 mg/kg or both, 25 min. As for the experimental part:
(§3) Mice after acclimatization and one week of handling were randomly divided into five groups (n=8/condition) and orally treated as follow: 1) control non-restrained mice treated with vehicle (PBS, pH 7.4); 2) restrained mice treated with vehicle; 3), restrained mice treated with a cotinine solution (5 mg/kg in PBS, pH 7.4) via gavage; 4) restrained mice treated with KO (143 mg/kg); 5) restrained mice treated with cotinine plus KO solution. Mice were started with treatments, the first day of restraint and continuously until euthanasia. Treatments were administered at the same time of the day, 30 min before restraint. After 21 days into treatments, mice were behaviorally tested (FIG. 17).
Restraint stress (RS) was used as a model of chronic stress-induced depressive-like behavior and cognitive impairment. We used this task because is a reliable method that mimics the effects of chronic stress without causing physical pain or unnecessary discomfort to the mice. Mice were gently introduced into a 50-ml conical transparent plastic tubes (Corning Inc.). […]
The open field (OF) test was conducted as previously described with minor modifications to identify changes in locomotor activity in response to stress and/or drug treatments. […] Total distance traveled, and time spent in the center zone were measured under moderate lighting using the video tracking software (ANY-Maze, Stoelting Co.).

The subject of assay [3] is mice subjected to restraint stress. The experiment in a line: Elevated plus maze after restraint stress (Example 1, Experiment 1). It counts as in vivo, C57BL/6 mice. Conditions: RS mice, post-treatment with cotinine. On the procedure:
as §1, §2
Anxiety was assessed through the elevated plus maze (EPM). EPM is considered one of the best choices to test anxiolytic effects of drugs. This test is based on the observation that most of the time higher anxiety levels will diminish the time exploring new environments as a form to avoid danger (open arms).
To determine the level of anxiety, mice were tested in the EPM. […]

Assay [4] deals with restrained mice. The assay can be described thus: Forced swim test, oral co-treatment during restraint stress (Example 3). Conditions: oral cotinine 5 mg/kg, KO 143 mg/kg or both, vs vehicle-treated restrained mice. Type of assay: in vivo, C57BL/6J mice. On the procedure:
as §3
Restraint stress (RS) was used as a model of chronic stress-induced depressive-like behavior and cognitive impairment. We used this task because is a reliable method that mimics the effects of chronic stress without causing physical pain or unnecessary discomfort to the mice. Mice were gently introduced into a 50-ml conical transparent plastic tubes (Corning Inc.). The tubes contain non-protruding perforations in both ends and in the walls to permit ventilation and only permitted slight movements. […]
The forced swim (FS) is a broadly used task to assess depressive-like behavior in rodents. […] Immobility time was recorded and quantified by two investigators blind to the treatment groups.

Assay [5] relates to mice subjected to fear conditioning. The assay can be described thus: Contextual fear retention and extinction (Example 1, Experiment 3). It counts as in vivo, C57BL/6 mice. An excerpt:
Between trials, the chamber was sanitized with 70% ethanol and dried.

For assay [6], the system named is mice subjected to restraint stress. The experiment in a line: Porsolt test, oral co-treatment during restraint stress (Example 1, Experiment 2). Type of assay: in vivo, C57BL/6 mice. Conditions: RS mice, cotinine 5 mg/kg, KO, or mix, vs stressed vehicle. On the procedure:
Mice (n=5-8/condition) were treated via oral during and after restraint stress continuously until euthanasia.
Mice received daily treatments with
2. Cotinine dissolved in PBS via oral (gavage, (5 mg/kg; Cot 0.5)
3. Krill oil (KO) via oral (5 mg/ml in PBS, 50 μl) continuously from the beginning of the restraint stress until euthanasia.
as §2
This test is used to measure the antidepressant effects of drugs, and consists in placing each mouse in a transparent cylinder filled with water at room temperature (RT). After a brief period of strong activity, rodents adopt a characteristic immobile posture. The time mice spent immobile is a measure of depressive-like behavior. The immobility time will be recorded during a 15-min and a next day 5-min trial. The time spent by each mouse immobile will be recorded.

Turning to `CN1C(=O)CC[C@H]1c1cccnc1` [Cotinine, (5S)-1-methyl-5-(3-pyridyl) pyrrolidin-2-one], the “number of entries into the new object area (NOR)” value in assay [1] is “increased the number of entries into the new object area to control values”. For the same compound, in the assay on restrained mice [2], the “locomotor activity in the open field (distance traveled, speed)” value is recorded as “no significant changes in locomotor activity”. Besides, in assay [3] (Tukey p<0.01), the “locomotor activity (distance traveled) in the EPM” value is on record as “reduced significantly the locomotor activity in the RS mice”. For the same compound, the “rearing activity in the elevated plus maze” value in assay [3] (vs Ctrl non-restrained mice) is on record as “did not show differences with Ctrl non-restrained mice”. Moreover, the “immobility in the forced swim test” value with restrained mice [4] is recorded as “no significant differences”. In addition, in assay [5] (IN treatment started 2 h after FC, test 24 h after FC), the “freezing in the contextual retention test (consolidation of fear memory)” value is recorded as “levels of freezing similar to control mice”. Further, the “freezing behavior during contextual fear extinction trials” value in assay [5] (daily IN treatment, daily 3 min re-exposure) is “significant enhancement of memory extinction on day 2 and 3”. Also, the “day of maximal decrease in freezing during extinction” value in assay [5] (daily IN treatment, control mice day 5) amounted to 3 days. Also, the “depressive-like behavior (freezing behavior) in the Porsolt test” value in assay [6] is on record as “non-significant decrease in depressive-like behavior”.
